Assay results reported in PubChem BioAssay AID328 (DTP/NCI, 2004).
Where “and” joins values, the source holds several entries; their conditions need not be identical. Equal entries are not always repeated. Inconclusive results and toxic doses are left out.

Tested on: BDF1 mice, P388 leukemia ip, median survival T/C
Experiment: NCI In Vivo Anticancer Drug Screen. Data for tumor model P388 Leukemia (intraperitoneal) in B6D2F1 (BDF1) mice
Conditions: endpoint: median survival time, higher = longer survival
Outline: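 Compound-treated tumour-bearing mice were compared with vehicle-treated controls. Survival was recorded, and the value is the treated-group measurement divided by the control-group measurement (T/C).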

[1] = dose: 50.0 mg/kg/injection, schedule: Q01DX009 (ip), vehicle: saline with Tween-80
[2] = dose: 100.0 mg/kg/injection, schedule: Q01DX009 (ip), vehicle: saline with Tween-80
[3] = dose: 200.0 mg/kg/injection, schedule: Q01DX009 (ip), vehicle: saline with Tween-80
[4] = dose: 3.13 mg/kg/injection, schedule: Q01DX009 (ip), vehicle: saline with Tween-80
[5] = dose: 6.25 mg/kg/injection, schedule: Q01DX009 (ip), vehicle: saline with Tween-80
[6] = dose: 12.5 mg/kg/injection, schedule: Q01DX009 (ip), vehicle: saline with Tween-80
[7] = dose: 25.0 mg/kg/injection, schedule: Q01DX009 (ip), vehicle: saline with Tween-80
[8] = dose: 100.0 mg/kg/injection, schedule: Q04DX003 (ip), vehicle: saline with Tween-80
[9] = dose: 200.0 mg/kg/injection, schedule: Q04DX003 (ip), vehicle: saline with Tween-80
[10] = dose: 100.0 mg/kg/injection, schedule: Q01DX009 (ip), vehicle: Klucel (hydroxypropylcellulose) (HPC)
[11] = dose: 100.0 mg/kg/injection, schedule: Q04DX003 (ip), vehicle: Klucel (hydroxypropylcellulose) (HPC)
[12] = dose: 200.0 mg/kg/injection, schedule: Q01DX009 (ip), vehicle: Klucel (hydroxypropylcellulose) (HPC)
[13] = dose: 200.0 mg/kg/injection, schedule: Q04DX003 (ip), vehicle: Klucel (hydroxypropylcellulose) (HPC)
[14] = dose: 400.0 mg/kg/injection, schedule: Q04DX003 (ip), vehicle: Klucel (hydroxypropylcellulose) (HPC)

Structure (SMILES): O=C1NC(=O)C(c2ccccc2Cl)N1 (stereo not drawn)
- T/C (dose: 100.0 mg/kg/injection, schedule: Q01DX001 (ip), vehicle: Klucel (hydroxypropylcellulose) (HPC)): 104 % of control
- T/C (dose: 200.0 mg/kg/injection, schedule: Q01DX001 (ip), vehicle: Klucel (hydroxypropylcellulose) (HPC)): 112 % of control
- T/C (dose: 400.0 mg/kg/injection, schedule: Q01DX001 (ip), vehicle: Klucel (hydroxypropylcellulose) (HPC)): 112 % of control

Structure (SMILES): CCNC(=O)c1cc2cccc(OC)c2oc1=N
- T/C (dose: 200.0 mg/kg/injection, schedule: Q01DX009 (ip), vehicle: saline): 86 % of control

Structure (SMILES): OCC1CC1c1ccccc1 (stereo not drawn)
- T/C [1]: 101 % of control
- T/C [2]: 102 % of control
- T/C [3]: 109 % of control

Structure (SMILES): COc1cc(NS(C)(=O)=O)ccc1Nc1c2cccc(C)c2nc2c(C)cccc12
- T/C (dose: 1.57 mg/kg/injection, schedule: Q01DX009 (ip), vehicle: saline): 176 % of control
- T/C [4]: 150 % of control
- T/C (dose: 3.13 mg/kg/injection, schedule: Q01DX009 (ip), vehicle: saline): 201 % of control
- T/C [5]: 169 % of control
- T/C [6]: 186 % of control
- T/C (dose: 14.6 mg/kg/injection, schedule: Q04DX003 (ip), vehicle: saline): 163 % of control
- T/C (dose: 22.0 mg/kg/injection, schedule: Q04DX003 (ip), vehicle: saline): 163 % of control
- T/C [7]: 231 % of control
- T/C (dose: 33.0 mg/kg/injection, schedule: Q04DX003 (ip), vehicle: saline): 159 % of control
- T/C (dose: 50.0 mg/kg/injection, schedule: Q04DX003 (ip), vehicle: saline): 227 % of control
- T/C [8]: 272 % of control
- T/C [9]: 109 % of control

Structure (SMILES): CC1NC(C(=O)O)Cc2cc(O)c(O)cc21 (stereo not drawn)
- T/C (dose: 12.5 mg/kg/injection, schedule: Q01DX009 (ip), vehicle: Klucel (hydroxypropylcellulose) (HPC)): 109 % of control
- T/C (dose: 25.0 mg/kg/injection, schedule: Q01DX009 (ip), vehicle: Klucel (hydroxypropylcellulose) (HPC)): 109 % of control
- T/C (dose: 50.0 mg/kg/injection, schedule: Q01DX009 (ip), vehicle: Klucel (hydroxypropylcellulose) (HPC)): 92 % of control and 99 % of control
- T/C [10]: 101 % of control

Structure (SMILES): CC(C)NCc1ccccc1Sc1ccccc1
- T/C (dose: 100.0 mg/kg/injection, schedule: Q01DX001 (ip), vehicle: saline with Tween-80): 101 % of control

Structure (SMILES): COc1cc2c(c(OC)c1OC)-c1ccc(OC)c(=O)cc1[C@@H](N)CC2
- T/C (dose: 1.25 mg/kg/injection, schedule: Q01DX009 (ip), vehicle: water): 120 % of control
- T/C (dose: 2.0 mg/kg/injection, schedule: Q01DX010 (ip), vehicle: water): 160 % of control
- T/C (dose: 5.0 mg/kg/injection, schedule: Q01DX009 (ip), vehicle: water): 94 % of control
- T/C (dose: 20.0 mg/kg/injection, schedule: Q04DX003 (ip), vehicle: Klucel (hydroxypropylcellulose) (HPC)): 176 % of control
- T/C (dose: 30.0 mg/kg/injection, schedule: Q04DX003 (ip), vehicle: Klucel (hydroxypropylcellulose) (HPC)): 98 % of control
- T/C (dose: 45.0 mg/kg/injection, schedule: Q04DX003 (ip), vehicle: Klucel (hydroxypropylcellulose) (HPC)): 89 % of control

Structure (SMILES): C(=N\N=C\c1c[nH]c2ccccc12)/c1c[nH]c2ccccc12
- T/C (dose: 100.0 mg/kg/injection, schedule: Q01DX009 (ip), vehicle: gum acacia): 89 % of control
- T/C (dose: 100.0 mg/kg/injection, schedule: Q04DX003 (ip), vehicle: gum acacia): 108 % of control
- T/C (dose: 200.0 mg/kg/injection, schedule: Q01DX009 (ip), vehicle: gum acacia): 89 % of control
- T/C (dose: 200.0 mg/kg/injection, schedule: Q04DX003 (ip), vehicle: gum acacia): 95 % of control
- T/C (dose: 400.0 mg/kg/injection, schedule: Q01DX009 (ip), vehicle: gum acacia): 96 % of control
- T/C (dose: 400.0 mg/kg/injection, schedule: Q04DX003 (ip), vehicle: gum acacia): 100 % of control

Structure (SMILES): CC1(C#N)c2ccccc2C=CN1C(=O)c1ccccc1 (stereo not drawn)
- T/C [10]: 90 % of control
- T/C [11]: 100 % of control
- T/C [12]: 100 % of control
- T/C [13]: 95 % of control
- T/C (dose: 400.0 mg/kg/injection, schedule: Q01DX009 (ip), vehicle: Klucel (hydroxypropylcellulose) (HPC)): 100 % of control
- T/C [14]: 100 % of control

Structure (SMILES): NC(=O)c1ncn[nH]1
- T/C [1]: 95 % of control
- T/C (dose: 50.0 mg/kg/injection, schedule: Q04DX003 (ip), vehicle: saline with Tween-80): 104 % of control
- T/C [2]: 87 % of control
- T/C [8]: 100 % of control
- T/C [3]: 104 % of control
- T/C [9]: 100 % of control

Structure (SMILES): Cc1ccc(NC(=O)N(CCCl)N=O)cc1NC(=O)N(CCCl)N=O
- T/C (dose: 1.25 mg/kg/injection, schedule: Q04DX003 (ip), vehicle: other): 179 % of control
- T/C (dose: 2.5 mg/kg/injection, schedule: Q04DX003 (ip), vehicle: other): 175 % of control
- T/C (dose: 3.12 mg/kg/injection, schedule: Q01DX009 (ip), vehicle: other): 204 % of control
- T/C [4]: 185 % of control
- T/C (dose: 5.0 mg/kg/injection, schedule: Q04DX003 (ip), vehicle: other): 200 % of control
- T/C (dose: 6.25 mg/kg/injection, schedule: Q01DX009 (ip), vehicle: other): 207 % of control
- T/C [5]: 221 % of control
- T/C (dose: 6.25 mg/kg/injection, schedule: Q04DX003 (ip), vehicle: other): 166 % of control
- T/C [6]: 221 % of control
- T/C [7]: 113 % of control
- T/C (dose: 25.0 mg/kg/injection, schedule: Q04DX003 (ip), vehicle: other): 177 % of control

Structure (SMILES): COc1cccc(C2NC(=O)c3c(n[nH]c3N)S2)c1O (stereo not drawn)
- T/C [1]: 103 % of control
- T/C [2]: 99 % of control
- T/C [3]: 103 % of control

Structure (SMILES): C=C(C)[C@H]1Cc2c(ccc3c2O[C@@H]2COc4cc(OC)c(OC)cc4[C@@H]2C3=O)O1
- T/C (dose: 4.0 mg/kg/injection, schedule: Q01DX010 (ip), vehicle: saline): 109 % of control
- T/C (dose: 10.0 mg/kg/injection, schedule: Q01DX009 (ip), vehicle: saline): 95 % of control
- T/C (dose: 20.0 mg/kg/injection, schedule: Q01DX009 (ip), vehicle: saline): 155 % of control
- T/C (dose: 40.0 mg/kg/injection, schedule: Q01DX009 (ip), vehicle: saline): 120 % of control

Structure (SMILES): CN1CCC2=C(C1)C(N1CCCC1)CS(=O)(=O)O2 (stereo not drawn)
- T/C (dose: 12.5 mg/kg/injection, schedule: Q04DX002 (ip), vehicle: saline): 100 % of control
- T/C (dose: 25.0 mg/kg/injection, schedule: Q04DX002 (ip), vehicle: saline): 102 % of control
- T/C (dose: 50.0 mg/kg/injection, schedule: Q04DX002 (ip), vehicle: saline): 99 % of control

Structure (SMILES): NNc1ccc([N+](=O)[O-])c2[nH][nH]c(=O)c12
- T/C [1]: 105 % of control
- T/C [2]: 107 % of control
- T/C [3]: 107 % of control

Structure (SMILES): CCOc1ccc(/C=N/NS(=O)(=O)c2ccc(C)cc2)cc1
- T/C [11]: 100 % of control
- T/C [12]: 92 % of control
- T/C [13]: 100 % of control
- T/C [14]: 100 % of control

Structure (SMILES): c1ccc2c(c1)CC1C2ON2CCc3ccccc3C12 (stereo not drawn)
- T/C [2]: 91 % of control
- T/C [3]: 97 % of control
- T/C (dose: 400.0 mg/kg/injection, schedule: Q01DX009 (ip), vehicle: saline with Tween-80): 109 % of control

Structure (SMILES): O=C(Nc1ccc(NC2=NCCN2)cc1)c1cccc(C(=O)Nc2ccc(NC3=NCCN3)cc2)c1
- T/C (dose: 5.0 mg/kg/injection, schedule: Q01DX009 (ip), vehicle: saline with Tween-80): 116 % of control
- T/C (dose: 5.0 mg/kg/injection, schedule: Q04DX003 (ip), vehicle: saline with Tween-80): 100 % of control
- T/C (dose: 10.0 mg/kg/injection, schedule: Q04DX003 (ip), vehicle: saline with Tween-80): 100 % of control
- T/C (dose: 13.0 mg/kg/injection, schedule: Q01DX009 (ip), vehicle: saline with Tween-80): 150 % of control
- T/C (dose: 20.0 mg/kg/injection, schedule: Q04DX003 (ip), vehicle: saline with Tween-80): 122 % of control
- T/C (dose: 30.0 mg/kg/injection, schedule: Q01DX009 (ip), vehicle: saline with Tween-80): 122 % of control

Structure (SMILES): COC(=O)C(N)CN (stereo not drawn)
- T/C (dose: 175.0 mg/kg/injection, schedule: Q01DX009 (ip), vehicle: saline with Tween-80): 89 % of control

Structure (SMILES): N/N=C(\N)c1nn[nH]n1
- T/C [7]: 96 % of control
- T/C [1]: 96 % of control
- T/C [2]: 110 % of control
- T/C [3]: 86 % of control

Structure (SMILES): COC(=O)C12OCC34C(CC5C(C)=C(O)C(=O)CC5(C)C3C(O)C1O)OC(=O)C(O)C24 (stereo not drawn)
- T/C (dose: 5.0 micrograms/kg/injection, schedule: Q01DX009 (ip), vehicle: saline): 100 % of control
- T/C (dose: 10.0 micrograms/kg/injection, schedule: Q01DX009 (ip), vehicle: saline): 109 % of control
- T/C (dose: 20.0 micrograms/kg/injection, schedule: Q01DX009 (ip), vehicle: saline): 118 % of control
